# Test results: patent US10100050B2 (CHIESI FARMACEUTICI S.P.A., priority 2015, dated 2018)
# What was measured:
# [1] = tested on: Peripheral Blood Mononuclear Cells (PBMCs); assay: LPS-stimulated PBMC TNFα release assay; type: cell-based; conditions: IC50 classes; human PBMC, LPS 10 ng/ml, 18 h; read-out: LPS-stimulated PBMC TNFα release inhibition
# Method: 1-10 nM ‘+’; • <1 nM ‘++’ LPS-Stimulated PBMC TNFα Release Assay
# Peripheral Blood Mononuclear Cells (PBMCs) were isolated from healthy human volunteer blood using a standard density gradient centrifugation technique. Citrated blood was placed onto Histopaque™ and centrifuged. The PBMCs were removed from the density gradient interface and washed in phosphate buffered saline (PBS). The PBMCs were suspended in RPMI 1640 medium (without serum), dispensed into a 96-well plate and incubated at 37° C. for 3 h in a humidified incubator. After incubation, the medium was replaced (with medium containing 1% foetal bovine serum) and the plate incubated at 37° C., for 1 h, in the presence of test compound or the appropriate vehicle. LPS (10 ng/ml), or an appropriate vehicle control, was then added to the cells and the plate returned to the incubator for 18 h. Cell-free supernatants were removed and assayed for TNFα levels using MSD plates on the Sector Imager 6000 (MesoScale).
# A dose response curve to each test compound was performed and the effect of compound in each experiment was expressed as a percentage inhibition of the control TNFα release. Dose response curves were plotted and compound potency (IC50) was determined. Compounds were tested in at least three separate experiments.
# BEAS-2B cells = assay: TNFα-stimulated BEAS-2B IL-8 release assay; type: cell-based; conditions: Homo sapiens, IC50 classes, TNF-α 10 ng/ml, 18 h, read-out: TNFα-stimulated BEAS-2B IL-8 release inhibition
# Method: TNFα-Stimulated BEAS-2B IL-8 Release Assay
# Human bronchial epithelial cell line BEAS-2B was purchased from Sigma (St. Louis, Mo.). BEAS-2B cells were cultured in Bronchial Epithelial cell Growth Medium (BEGM), prepared by supplementing Bronchial Epithelial Basal Medium with SingleQuotes™ (Lonza, Switzerland), which contains retinoic acid, epidermal growth factor, epinephrine, transferrin, triiodothyronin, insulin, hydrocortisone, antimicrobial agents, and bovine pituitary extract. In addition, BEGM medium was supplemented with 2 mM glutamine, 100 U penicillin and 100 μg/ml streptomycin (Life Technologies), in an atmosphere of 95% air and 5% CO2 at 37° C.
# BEAS-2B were seeded in 48-well plates at the density of 3×10^4 cells per well, grown to approximately 80-90% confluence. Cells were pre-incubated with p38 inhibitors for 1 hour and then stimulated with TNF-α (10 ng/ml) for 18 h at 37° C. with 5% CO2. Subsequently, supernatants were collected and used for measuring IL-8 levels using a paired antibody quantitative ELISA kit purchased from Life Technologies (detection limit: […]). All the treatments were performed at least in quadruplicate.
# A concentration-response curve to each test compound was performed and the effect of compound in each experiment was expressed as a percentage inhibition of the control IL-8 release. Compound potency (IC50) was calculated by the analysis of the sigmoidal dose-response curve (variable slope) elaborated by Graph Pad PRISM4 program.
# p38alpha = biological target: T1, p38alpha (Homo sapiens, UniProt Q16539); assay: P38alpha enzyme inhibition assay (Alphascreen kinase activity assay); type: biochemical; conditions: IC50 classes; 2 hours preincubation at 25° C., 250 μM ATP; read-out: p38α inhibition
# T1 construct: purchased Invitrogen PV3304
# T1 sequence (Q16539 whole entry): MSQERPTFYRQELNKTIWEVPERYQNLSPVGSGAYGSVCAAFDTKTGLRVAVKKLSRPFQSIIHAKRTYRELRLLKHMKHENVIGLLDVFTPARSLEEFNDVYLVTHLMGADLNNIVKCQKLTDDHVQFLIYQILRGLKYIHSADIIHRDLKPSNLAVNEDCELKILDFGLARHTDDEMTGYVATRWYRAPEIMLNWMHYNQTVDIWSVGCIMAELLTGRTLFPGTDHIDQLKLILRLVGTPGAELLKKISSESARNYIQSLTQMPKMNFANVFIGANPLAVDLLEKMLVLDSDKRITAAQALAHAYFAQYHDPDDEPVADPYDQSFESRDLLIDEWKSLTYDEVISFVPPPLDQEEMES
# Method: P38alpha Enzyme Inhibition Assay
# The inhibitory activity of compounds was determined using an Alphascreen® (Perkin Elmer) based kinase activity assay. Kinase reactions consisted of 25 mM HEPES pH 7.5, 10 mM MgCl2, 100 μM Na3VO4, 2 mM DTT, 0.05 mg/ml Tween […] (Invitrogen, PV3304), 1% DMSO and 0.3 μg/ml ATF-2 fusion protein (New England Biolabs, 9224). Compounds were incubated under these conditions for 2 hours, at 25° C., prior to the initiation of the kinase activity by the addition of the 250 μM ATP. Reaction volumes were 20 uL. After 1 hr at 25° C. reactions were stopped by the adding 10 uL of 25 mM HEPES pH 7.5 containing 62.5 mM EDTA, 0.05% Triton X-100, 10% BSA and 0.83 ng/uL anti-phospho-ATF2 antibody (Abcam, ab28812). Detection was performed by measuring luminescence following the addition of Alphascreen Donor beads (Perkin Elmer 6765300) and Protein A Alphascreen Acceptor beads (Perkin Elmer 6760137), both at a final concentration of 20 ug/ml. IC50 values were determined from concentration-response curves.
SMILES,IC50 [1] [nM],IC50 (BEAS-2B cells) [nM],IC50 (p38alpha) [nM]
"CN(C)C(C)(C)c1nnc2ccc(O[C@@H]3CC[C@H](NC(=O)Nc4cc(NS(C)(=O)=O)cc(C(C)(C)C)c4)c4ccccc43)cn12 [Example 19, N-[3-tert-Butyl-5-(3-{(1S,4R)-4-[3-(1-dimethylamino-1-methyl-ethyl)-[1,2,4]triazolo[4,3-a]pyridin-6-yloxy]-1,2,3,4-tetrahydro-naphthalen-1-yl}-ureido)-phenyl]-methanesulfonamide]",< 1,< 0.3,< 1
"CN1CCC[C@]1(C)c1nnc2ccc(O[C@@H]3CC[C@H](NC(=O)Nc4cc(NS(C)(=O)=O)cc(C(C)(C)C)c4)c4ccccc43)cn12 [Example 20, N-[3-tert-Butyl-5-(3-{(1S,4R)-4-[3((R)-1,2-dimethyl-pyrrolidin-2-yl)-[1,2,4]triazolo[4,3-a]pyridin-6-yloxy]-1,2,3,4-tetrahydro-naphthalen-1-yl}-ureido)-phenyl]-methanesulfonamide]",< 1,< 0.3,< 1
CN1CCC[C@H]1c1nnc2ccc(O[C@@H]3CC[C@H](NC(=O)Nc4cc(NS(C)(=O)=O)cc(C(C)(C)C)c4)c4ccccc43)cn12 [Example 21],1 to 5,0.3 to 1,< 1
"CN1CCC[C@@]1(C)c1nnc2ccc(O[C@@H]3CC[C@H](NC(=O)Nc4cc(NS(C)(=O)=O)cc(C(C)(C)C)c4)c4ccccc43)cn12 [Example 24, N-[3-tert-Butyl-5-(3-{(1S,4R)-4-[3-((S)-1,2-dimethyl-pyrrolidin-2-yl)-[1,2,4]triazolo[4,3-a]pyridin-6-yloxy]-1,2,3,4-tetrahydro-naphthalen-1-yl}-ureido)-phenyl]-methanesulfonamide]",< 1,< 0.3,< 1
"CN1CCOC[C@H]1c1nnc2ccc(O[C@@H]3CC[C@H](NC(=O)Nc4cc(NS(C)(=O)=O)cc(C(C)(C)C)c4)c4ccccc43)cn12 [Example 25, N-[3-tert-Butyl-5-(3-{(1S,4R)-4-[3-((R)-4-methyl-morpholin-3-yl)-[1,2,4]triazolo[4,3-a]pyridin-6-yloxy]-1,2,3,4-tetrahydro-naphthalenyl}-ureido)-phenyl]-methanesulfonamide]",> 5,> 1,< 1
"CCN1CCC[C@@]1(C)c1nnc2ccc(O[C@@H]3CC[C@H](NC(=O)Nc4cc(NS(C)(=O)=O)cc(C(C)(C)C)c4)c4ccccc43)cn12 [Example 27, N-[3-tert-Butyl-5-(3-{(1S,4R)-4-[3-((S)-1-ethyl-2-methyl-pyrrolidin-2-yl)-[1,2,4]triazolo[4,3-a]pyridin-6-yloxy]-1,2,3,4-tetrahydro-naphthalen-1-yl}-ureido)-phenyl]-methanesulfonamide]",< 1,< 0.3,< 1
"CC(C)(C)c1cc(NC(=O)N[C@H]2CC[C@@H](Oc3ccc4nnc([C@@H]5CCCN5CCO)n4c3)c3ccccc32)cc(NS(C)(=O)=O)c1 [Example 31, N-{3-tert-Butyl-5-[3-((1S,4R)-4-{3-[(S)-1-(2-hydroxy-ethyl)-pyrrolidin-2-yl]-[1,2,4]triazolo[4,3-a]pyridin-6-yloxy}-1,2,3,4-tetrahydro-naphthalen-1-yl)-ureido]-phenyl}-methanesulfonamide]",> 5,> 1,< 1
CN1CCC[C@@]1(CO)c1nnc2ccc(O[C@@H]3CC[C@H](NC(=O)Nc4cc(NS(C)(=O)=O)cc(C(C)(C)C)c4)c4ccccc43)cn12 [Example 33],< 1,0.3 to 1,< 1
CN1CCC[C@@]1(C)c1nnc2ccc(O[C@@H]3CC[C@H](NC(=O)Nc4cc(N)cc(C(C)(C)C)c4)c4ccccc43)cn12 [Example 35],1 to 5,< 0.3,< 1
"CN1CCC[C@H]1c1nnc2ccc(O[C@@H]3CC[C@H](NC(=O)Nc4cc(NS(=O)(=O)C5CC5)cc(C(C)(C)C)c4)c4ccccc43)cn12 [Example 36, Cyclopropanesulfonic acid [3-tert-butyl-5-(3-{(1S,4R)-4-[3-((S)-1-methyl-pyrrolidin-2-yl)-[1,2,4]triazolo[4,3-a]pyridin-6-yloxy]-1,2,3,4-tetrahydro-naphthalen-1-yl}-ureido)-phenyl]-amide]",1 to 5,0.3 to 1,< 1
"CN1CCC[C@@]1(C)c1nnc2ccc(O[C@@H]3CC[C@H](NC(=O)Nc4cc(NS(=O)(=O)C5CC5)cc(C(C)(C)C)c4)c4ccccc43)cn12 [Example 37, Cyclopropanesulfonic acid [3-tert-butyl-5-(3-{(1S,4R)-4-[3-((S)-1,2-dimethyl-pyrrolidin-2-yl)-[1,2,4]triazolo[4,3-a]pyridin-6-yloxy]-1,2,3,4-tetrahydro-naphthalen-1-yl}-ureido)-phenyl]-amide]",< 1,< 0.3,1 to 10
"CNS(=O)(=O)c1cc(NC(=O)N[C@H]2CC[C@@H](Oc3ccc4nnc([C@@H]5CCCN5C)n4c3)c3ccccc32)cc(C(C)(C)C)c1 [Example 38, 3-tert-Butyl-N-methyl-5-(3-{(1S,4R)-4-[3-((S)-1-methyl-pyrrolidin-2-yl)-[1,2,4]triazolo[4,3-a]pyridin-6-yloxy]-1,2,3,4-tetrahydro-naphthalen-1-yl}-ureido)-benzenesulfonamide]",1 to 5,0.3 to 1,< 1
"CNS(=O)(=O)c1cc(NC(=O)N[C@H]2CC[C@@H](Oc3ccc4nnc([C@]5(C)CCCN5C)n4c3)c3ccccc32)cc(C(C)(C)C)c1 [Example 39, 3-tert-Butyl-5-(3-{(1S,4R)-4-[3-((S)-1,2-dimethyl-pyrrolidin-2-yl)-[1,2,4]triazolo[4,3-a]pyridin-6-yloxy]-1,2,3,4-tetrahydro-naphthalen-1-yl}-ureido)-N-methyl-benzenesulfonamide]",< 1,< 0.3,< 1
"CN1CCC[C@@]1(C)c1nnc2ccc(O[C@@H]3CC[C@H](NC(=O)Nc4cc(CS(C)(=O)=O)cc(C(C)(C)C)c4)c4ccccc43)cn12 [Example 42, 1-(3-tert-Butyl-5-methanesulfonylmethyl-phenyl)-3-{(1S,4R)-4-[3-((S)-1,2-dimethyl-pyrrolidin-2-yl)-[1,2,4]triazolo[4,3-a]pyridin-6-yloxy]-1,2,3,4-tetrahydro-naphthalen-1-yl}-urea]",< 1,< 0.3,< 1
"CC(=O)OCc1cc(NC(=O)N[C@H]2CC[C@@H](Oc3ccc4nnc([C@@H]5CCCN5C)n4c3)c3ccccc32)cc(C(C)(C)C)c1 [Example 43, Acetic acid 3-tert-butyl-5-(3-{(1S,4R)-4-[3-((S)-1-methyl-pyrrolidin-2-yl)-[1,2,4]triazolo[4,3-a]pyridin-6-yloxy]-1,2,3,4-tetrahydro-naphthalen-1-yl}-ureido)-benzyl ester]",1 to 5,< 0.3,< 1
"CC(=O)OCc1cc(NC(=O)N[C@H]2CC[C@@H](Oc3ccc4nnc([C@]5(C)CCCN5C)n4c3)c3ccccc32)cc(C(C)(C)C)c1 [Example 44, Acetic acid 3-tert-butyl-5-(3-{(1S,4R)-4-[3-((S)-1,2-dimethyl-pyrrolidin-2-yl)-[1,2,4]triazolo[4,3-a]pyridin-6-yloxy]-1,2,3,4-tetrahydro-naphthalen-1-yl}-ureido)-benzyl ester]",< 1,< 0.3,< 1
